Assay [1] has as its system human naive CD4T cells. The format is cell-based. To be noted: for IFNγ+IL-4− cells (%) / ratio of IFNγ-producing cells (in words): Th1 differentiation inducing conditions; for IFNγ+IL-4− cells (%): crude human CD4T cells; for ratio of IFNγ-producing cells (in words): summary of Tables 4 and 5.
Assay [2] concerns human naive CD4T cells. Put plainly: Human Th2 differentiation induction culture with intracellular IFNγ/IL-4 staining and flow cytometry. The assay is classed as cell-based. To be noted: for ratio of IFNγ-producing cells (in words) / ratio of IL-4-producing cells (in words) / IFNγ+IL-4− cells (%) / IFNγ−IL-4+ cells (%): Th2 differentiation inducing conditions; for IFNγ+IL-4− cells (%) / IFNγ−IL-4+ cells (%): crude human CD4T cells; for IFNγ+IL-4− cells (%): control 18.1; for IFNγ−IL-4+ cells (%): control 19.4. As to the method:
Separation of human naive CD4T cells was performed using an automated magnetic cell sorter (autoMACS Miltenyi Biotec GmbH) by the method described below. Whole blood was drawn by venous paracentesis from six healthy donor volunteers at 24 to 50 years of age. 50 ml of human peripheral blood was diluted two fold with 50 ml of a D-PBS solution (Sigma-Aldrich Inc). Next, 25 ml of the above-described diluted peripheral blood was gradually overlain in four centrifugal tubes containing 12.5 ml of Ficoll-Paque Plus (Amersham Biosciences), and the tubes were centrifuged using a centrifuge at room temperature and 950 G for 30 minutes. After centrifugation, lymphocytes present in the intermediate layer between the Ficoll-Paque and the supernatant were recovered, and suspended in a D-PBS solution containing 3% fetal calf serum (FCS: JRH Biosiences) and 2 mM EDTA (Dojindo Inc) (hereinafter, referred to as MACS buffer); the suspension was centrifuged using a centrifuge at 4° C. and 500 G for 5 minutes to sediment the lymphocytes. The resulting lymphocyte pellet was again suspended in MACS buffer; the suspension was centrifuged at 500 G for 5 minutes to sediment the lymphocytes, and twice washed to yield a lymphocyte pellet. This cell pellet was again suspended in the MACS buffer to obtain a cell density of 1×10^8 cells/ml. To 1×10^7 lymphocytes, 2 μL of an FITC-labeled anti-human CD8 antibody (BD BioScience Pharmingen) and 2 μL of an FITC-labeled anti-human CD45RO antibody (BD BioScience Pharmingen) were added, and they were reacted on ice for 30 minutes to thereby bind each antibody. The MACS buffer was added to the reaction mixture, and the mixture was centrifuged and twice washed at 4° C. Next, 10 μL of anti-FITC microbeads (Miltenyi Biotec GmbH) was added to 1×10^7 lymphocytes coupled with each antibody, and they were reacted with each other on ice for 15 minutes. The MACS buffer was added to the reaction mixture, and the mixture was centrifuged and twice washed at 4° C. The cell pellet obtained was suspended in the MACS buffer to obtain a cell density of 5×10^7/ml, and the suspension was passed through a nylon mesh (Abe Kagaku), after which a CD8- and CD45RO-double-negative fraction was recovered using an automated magnetic cell sorter (AutoMACS Miltenyi Biotec GmbH) to thereby separate human naive CD4T cells, which were supplied for the following experiments.
Under Th2 differentiation conditions, the cells were stimulated on a plate having the anti-CD3 antibody immobilized thereon for 2 days in a differentiation induction medium containing 50 U/ml (final concentration) IL-2 (Immunace, Shionogi & Co., Ltd.), 1 ng/ml (final concentration) IL-4, and 5 μg/ml (final concentration) anti-IFNγ antibody (Pharmingen, and the cells were transferred to a plate without immobilized anti-CD3 antibody, and cultured for 5 days. Furthermore, in the case of Th2 cell differentiation, following the 2 days, 5 days of differentiation induction was performed in two consecutive cycles.
Unless otherwise specified, the final concentrations of CW, LAM/LM, PIM2 and PIM6 were adjusted to 100 μg/ml.
Cells undergoing Th1 differentiation induction (Th1-induced cells) and cells undergoing Th2 differentiation induction (Th2-induced cells) were cultured and stimulated in the presence of Monensin (Sigma) in a medium supplemented with PMA (Phorbol-12-Myristate-13-Acetate, Sigma-Aldrich) and Ionomycin (Calbiochem) for 4 hours. After stimulation, intracellular staining was performed by the method described below, the cells were analyzed using a cell analyzer (FACScalibur), and the degree of Th1 or Th2 differentiation induction was evaluated. […]
(In flow cytometry, cells or beads pass a laser one at a time.)

Setting [3] is: 10 μg/ml, Table 4 test, vehicle 51.2.
[4] abbreviates: 30 μg/ml, Table 5 test, vehicle 60.6.
[5] abbreviates: 100 μg/ml, Table 4 test, vehicle 51.2.
Where [6] appears, read: 100 μg/ml, Table 5 test, vehicle 60.6.

Read-outs that look alike come from different tables or passages of the source.

Experimental findings from patent US7928088B2, “Th1 cell differentiation accelerator” (priority 2006, dated 2011) are described below.

For the substance lipomannan [LM], the “IFNγ+IL-4− cells (%)” value is listed as 56.7% in the assay with human naive CD4T cells [1] (setting [3]); 70.5% in the assay with human naive CD4T cells [1] (setting [4]); 67.9% in the assay on human naive CD4T cells [1] (setting [5]); 69.1% in the assay with human naive CD4T cells [1] (setting [6]); 29.5% with human naive CD4T cells [2] (3 μg/ml); 38.4% in the assay with human naive CD4T cells [2] (30 μg/ml). Besides, the “ratio of IFNγ-producing cells (in words)” value is recorded as “significantly increased” with human naive CD4T cells [1]; “dose-dependently increased” in the assay on human naive CD4T cells [2] (FIG. 13 and Table 6). In the assay on human naive CD4T cells [2] (FIG. 13 and Table 6), the “ratio of IL-4-producing cells (in words)” value is “dose-dependently suppressed”. In addition, the “IFNγ−IL-4+ cells (%)” value was 14.3% in the assay on human naive CD4T cells [2] (3 μg/ml) and 8.8% in the assay with human naive CD4T cells [2] (30 μg/ml).

cardiolipin [reference compound]: the “number of IFNγ-producing cells (in words)” value with human naive CD4T cells [1] (Th1 differentiation conditions, T cells from six healthy human volunteers, 100 μg/ml, FIGS. 8 and 9) was “did not increase”. The “potential to induce Th1 differentiation” value with human naive CD4T cells [1] (Th1 differentiation induction, 100 μg/ml, FIG. 7B) is “did not exhibit the potential to induce Th1 differentiation”. Moreover, the “number of IL-4-producing cells (in words)” value in the assay on human naive CD4T cells [2] (Th2 differentiation conditions, T cells from six healthy human volunteers, 100 μg/ml, FIGS. 8 and 9) is given as “increased”. Besides, in the assay with human naive CD4T cells [2] (100 μg/ml, FIG. 7B), the “ratio of IFNγ-producing cells (in words)” value is listed as “did not increase” and the “ratio of IL-4-producing cells (in words)” value is “increased”.

Take lipoarabinomannan [LAM]: the “IFNγ+IL-4− cells (%)” value in the assay with human naive CD4T cells [1] (setting [3]) was 55.9%; in the assay with human naive CD4T cells [1] (setting [4]), 63.1%; in the assay on human naive CD4T cells [1] (setting [5]), 55.4%; with human naive CD4T cells [1] (setting [6]), 67.6%; with human naive CD4T cells [2] (3 μg/ml), 26.9%; with human naive CD4T cells [2] (30 μg/ml) it was 34.8%. For the same substance, the “ratio of IFNγ-producing cells (in words)” value is listed as “significantly increased” in the assay with human naive CD4T cells [1]; “dose-dependently increased” with human naive CD4T cells [2] (FIG. 13 and Table 6). In addition, the “ratio of IL-4-producing cells (in words)” value with human naive CD4T cells [2] (FIG. 13 and Table 6) is reported as “dose-dependently suppressed”. In addition, the entries for the “IFNγ−IL-4+ cells (%)” value with human naive CD4T cells [2] (3 μg/ml) and in the assay on human naive CD4T cells [2] (30 μg/ml) were 17.2% and 11.9%, respectively.
